According to paper PMC12409883 (Journal of Medicinal Chemistry, 2025):

Columns and labels:
[1] = tested on: visual chromophore regeneration in BALB/cJ mice; assay: Extent and duration of effects on visual chromophore recovery after photobleach; conditions: 10 mg/kg single IP, photobleach 30 min after dose, 2 h dark recovery
RPE65 = RPE65 (Bos taurus, UniProt Q28175); assay: In vitro RPE65 activity assay; conditions: for IC50: IC50 toward RPE65, bovine RPE microsomes
porcine liver esterase = assay: In vitro esterase susceptibility assay; conditions: for initial rate of VCM loss: 37 °C, followed for 60 min
[2] = Shelf life of ester-based VCMs; format: physicochemical; conditions: Figure S1
BALB/cJ mice [3] = assay: Light-induced retinal damage in BALB/cJ mice: SLO and OCT imaging; format: in vivo, mouse
BALBc/J mice = assay: In vivo scotopic ERG 2 h after photobleach, oral gavage dosing; set-up: species or system mouse; conditions: 10 mg/kg oral gavage, photobleach after 30 min, 2 h in the dark
BALB/cJ mice [4] = assay: Light-induced retinal damage in BALB/cJ mice: histology, ONL nuclei counts; conditions: 10 mg/kg single IP, 15,000 lx for 8 h, p < 0.0001
Abca4–/–Rdh8–/– mice [5] = assay: Photic retinal damage in Abca4–/–Rdh8–/– mice: photopic ERG; format: in vivo, mouse; conditions: IP and oral administration, 1 week after light damage
Abca4–/–Rdh8–/– mice [6] = assay: Photic retinal damage in Abca4–/–Rdh8–/– mice: scotopic; format: in vivo, mouse; conditions: 1 week after light damage
Abca4–/–Rdh8–/– mice [7] = assay: Photic retinal damage in Abca4–/–Rdh8–/– mice; format: in vivo, mouse
[8] = 10 mg/kg single IP, 15,000 lx for 8 h, assessed after 7 days

RPE65, sequence (Q28175 whole entry): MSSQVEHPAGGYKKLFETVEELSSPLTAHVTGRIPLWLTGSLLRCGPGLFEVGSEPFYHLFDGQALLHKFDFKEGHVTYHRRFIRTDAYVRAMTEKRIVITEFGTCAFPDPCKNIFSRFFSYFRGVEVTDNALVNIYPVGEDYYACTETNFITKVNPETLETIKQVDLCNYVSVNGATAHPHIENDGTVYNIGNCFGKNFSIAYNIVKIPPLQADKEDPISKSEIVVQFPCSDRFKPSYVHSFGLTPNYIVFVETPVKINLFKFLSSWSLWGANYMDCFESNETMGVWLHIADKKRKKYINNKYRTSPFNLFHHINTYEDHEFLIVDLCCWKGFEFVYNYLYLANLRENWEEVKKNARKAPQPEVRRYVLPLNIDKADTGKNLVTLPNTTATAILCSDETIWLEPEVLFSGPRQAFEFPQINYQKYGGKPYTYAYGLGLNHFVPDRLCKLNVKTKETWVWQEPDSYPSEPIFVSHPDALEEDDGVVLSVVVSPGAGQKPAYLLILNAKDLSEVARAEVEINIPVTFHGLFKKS

SMILES	ocular retinoid pattern (atREs and 11cRAL) after photobleach [1]	RPE65 inhibition in vitro (RPE65; bovine RPE microsomes)	initial rate of VCM loss (porcine liver esterase) [% compound/min]	stability to nonenzymatic aminolysis [2]	IC50 (RPE65) [µM]	OCT: ONL thickness (BALB/cJ mice [3]; [8])	SLO retinal autofluorescent puncta (BALB/cJ mice [3]; [8])	efficacy of a single systemic administration in the prevention of photic retinal damage (BALB/cJ mice [3]; 10 mg/kg single IP, albino BALB/cJ mice)	scotopic ERG a-wave after oral dosing (BALBc/J mice)	scotopic ERG b-wave after oral dosing (BALBc/J mice)	slower initial rate of hydrolysis compared with compound 5 (porcine liver esterase) [fold]	Spider plot of ONL thickness from H&E sections, ANOVA (BALB/cJ mice [4])	S-cone and M-cone b-wave amplitudes (Abca4–/–Rdh8–/– mice [5])	rod ERG responses, IP (Abca4–/–Rdh8–/– mice [6]; IP administration)	rod ERG b-wave amplitudes, oral (Abca4–/–Rdh8–/– mice [6]; oral 10, 20, 50 mg/kg)	OCT: ONL, oral (Abca4–/–Rdh8–/– mice [7]; oral 10, 20, 50 mg/kg, 10,000 lx for 30 min, assessed after 1 week)	SLO autofluorescent signals, oral (Abca4–/–Rdh8–/– mice [7]; oral 10, 20 and 50 mg/kg, 10,000 lx for 30 min, assessed after 1 week)	oral dose from which the effect on ONL thickness was significant (Abca4–/–Rdh8–/– mice [7]; oral administration, OCT ONL thickness) [mg/kg]	OCT: ONL, IP (Abca4–/–Rdh8–/– mice [7]; single IP dose, 10,000 lx for 30 min, assessed after 1 week)
NCCC(O)c1cccc(O)c1 (stereo not shown) [Compound 4, 3-(3-Amino-1-hydroxypropyl)phenol]	led to the same pattern as vehicle treatment	did not significantly inhibit RPE65	–	–	–	–	–	–	–	–	–	–	–	–	–	–	–	–	–
NCCC(O)c1cccc(OC(=O)C2CCCCC2)c1.O=CO (stereo not shown) [Compound 5, 3-(3-Amino-1-hydroxypropyl)phenyl cyclohexanecarboxylate formate]	led to the same pattern as vehicle treatment	–	5.611	substantially less stable compared to 6 and 7	0.164 ± 0.027	–	–	–	–	–	–	–	–	–	–	–	–	–	–
CCC(CC)C(=O)Oc1cccc(C(O)CCN)c1.O=CO (stereo not shown) [Compound 6, 3-(3-Amino-1-hydroxypropyl)phenyl 2-ethylbutanoate formate]	reproduced the retinoid pattern observed after emixustat treatment	–	1.512	–	0.069 ± 0.015	preserved the thickness of the ONL	rare autofluorescent puncta	equal to that of emixustat	suppressed significantly the scotopic ERG a-wave	only 7 suppressed also the b-wave amplitude	~4	significant effect	–	–	–	–	–	–	–
CCCC(CCC)C(=O)Oc1cccc(C(O)CCN)c1.O=CO (stereo not shown) [Compound 7, 3-(3-Amino-1-hydroxypropyl)phenyl 2-propylpentanoate formate]	reproduced the retinoid pattern observed after emixustat treatment	–	0.440	–	0.102 ± 0.012	–	–	–	suppressed significantly the scotopic ERG a-wave	–	~13	–	A similar trend was observed	had a significant effect in maintaining rod function	dose-dependent preservation of rod ERG b-wave amplitudes	dose-dependent preservation of the ONL layer	did not afford complete protection	≥ 20	the ONL remained intact
